Data from patent publication US9802941B2, “Compounds and methods for inhibiting histone demethylases” (Gilead Sciences, Inc., priority 2014, dated 2017).
Like-named read-outs stand apart in the source and are kept apart here.

Tests used:
Type in all cases: biochemical
KDM4C (JMJD2C) = target: T1, KDM4C (JMJD2C) (Homo sapiens, UniProt Q9H3R0); experiment: Histone lysine demethylase AlphaLISA assay, KDM4C
T1 construct: KDM4C; BRIC, Denmark; 1-349; E. coli; host or cells: E. coli
T1 sequence (Q9H3R0 1-349): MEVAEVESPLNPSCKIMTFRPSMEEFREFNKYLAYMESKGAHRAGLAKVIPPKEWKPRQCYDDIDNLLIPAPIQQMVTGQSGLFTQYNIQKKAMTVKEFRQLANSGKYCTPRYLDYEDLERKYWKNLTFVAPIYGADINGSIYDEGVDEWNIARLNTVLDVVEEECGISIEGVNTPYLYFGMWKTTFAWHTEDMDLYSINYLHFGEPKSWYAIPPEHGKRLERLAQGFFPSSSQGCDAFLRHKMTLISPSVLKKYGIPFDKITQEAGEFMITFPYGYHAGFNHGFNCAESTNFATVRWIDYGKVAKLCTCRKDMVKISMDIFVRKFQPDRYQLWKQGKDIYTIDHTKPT
In short: (§1)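 Enzyme was preincubated in buffer (50 mM Hepes pH 7.4-8.0, 0.003-0.01% Tween-20, 0.1% BSA, 5 μM (NH4)2Fe(SO4)2), then added to compound in DMSO and incubated 10 minutes before substrate. After reaction at room temperature, acceptor and streptavidin donor beads were added and AlphaLISA signal read.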

PHF8 (KDM7) = target: T2, PHF8 (KDM7) (Homo sapiens, UniProt Q9UPP1); experiment: Histone lysine demethylase AlphaLISA assay, PHF8; conditions: AlphaLISA, in vitro; read-out: HDME Inhibition PHF8
T2 construct: KDM7 (PHF8); BRIC; 1-1322; Bac
In short: as §1

KDM5B (PLU-1) = target: T3, KDM5B (PLU-1) (Homo sapiens, UniProt Q9UGL1); experiment: Histone lysine demethylase AlphaLISA assay, KDM5B
T3 construct: BRIC; 1-809; E. coli; host or cells: E. coli
T3 sequence (Q9UGL1 1-809): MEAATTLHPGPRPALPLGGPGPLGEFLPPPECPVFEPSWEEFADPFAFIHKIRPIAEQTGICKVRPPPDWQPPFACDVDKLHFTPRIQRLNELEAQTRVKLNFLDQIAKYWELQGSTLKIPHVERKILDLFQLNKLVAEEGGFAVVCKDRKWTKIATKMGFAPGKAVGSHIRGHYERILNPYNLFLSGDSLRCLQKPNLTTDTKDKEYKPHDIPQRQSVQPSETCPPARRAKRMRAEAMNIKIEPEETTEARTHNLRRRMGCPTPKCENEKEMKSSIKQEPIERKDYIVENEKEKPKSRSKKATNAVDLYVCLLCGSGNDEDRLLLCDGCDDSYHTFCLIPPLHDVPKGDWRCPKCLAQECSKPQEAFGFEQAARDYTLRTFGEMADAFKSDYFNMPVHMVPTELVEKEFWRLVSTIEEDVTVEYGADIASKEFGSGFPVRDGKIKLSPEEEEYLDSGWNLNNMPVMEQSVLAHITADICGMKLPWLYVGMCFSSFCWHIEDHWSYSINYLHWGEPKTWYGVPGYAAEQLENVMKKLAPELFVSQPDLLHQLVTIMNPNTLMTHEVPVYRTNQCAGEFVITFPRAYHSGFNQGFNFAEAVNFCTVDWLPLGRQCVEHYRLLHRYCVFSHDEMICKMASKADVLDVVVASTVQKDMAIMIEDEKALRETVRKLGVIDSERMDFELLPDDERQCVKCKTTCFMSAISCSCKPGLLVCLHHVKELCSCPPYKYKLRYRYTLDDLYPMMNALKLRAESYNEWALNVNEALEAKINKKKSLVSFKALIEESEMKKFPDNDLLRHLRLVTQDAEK
In short: as §1

KDM6A (UTX) = target: T4, KDM6A (UTX) (Homo sapiens, UniProt O15550); experiment: Histone lysine demethylase AlphaLISA assay, KDM6A
T4 construct: KDM6A (UTX); BRIC; 919-1401; E. coli; host or cells: E. coli
Procedure: The compounds of the application, or a pharmaceutically acceptable salt, or solvate, or prodrug thereof, are tested in an in vitro AlphaLISA assay. Enzymes are dissolved in enzyme buffer and incubated before they are added to DMSO solutions of compounds of the application, or a pharmaceutically acceptable salt, or solvate, or prodrug thereof, in enzyme buffer. The reaction mixture is then incubated for an additional period of time before substrate solution is added and then the resulting mixture again incubated. Acceptor beads and suspended Epigenetic Buffer from stock are added and the suspension is again incubated before a suspension of streptavidin donor beads in Epigenetic Buffer is added. After an additional period of incubation, the plates are read.
The ability of compounds of the application to inhibit the histone lysine demethylase activity in vitro of different enzymes was determined.
The reaction mixture was incubated for another 10 minutes before 5 μL of substrate solution was added and the resulting mixture was then incubated at room temperature. […] After incubation at room temperature in the dark, the plates were read.
Enzyme Buffer: 50 mM Hepes (pH 7.4-8.0), 0.003-0.01% Tween-20, 0.1% BSA; 5 μM (NH4)2Fe(SO4)2.

KDM2B (FBXL10) = target: T5, KDM2B (FBXL10) (Homo sapiens, UniProt Q8NHM5); experiment: Histone lysine demethylase AlphaLISA assay, KDM2B; conditions: AlphaLISA, in vitro; read-out: HDME Inhibition KDM2B
T5 construct: KDM2B; BPS,; 1-650; Bac; purchased BPS Bioscience, US; host or cells: baculovirus system
T5 sequence (Q8NHM5 1-650): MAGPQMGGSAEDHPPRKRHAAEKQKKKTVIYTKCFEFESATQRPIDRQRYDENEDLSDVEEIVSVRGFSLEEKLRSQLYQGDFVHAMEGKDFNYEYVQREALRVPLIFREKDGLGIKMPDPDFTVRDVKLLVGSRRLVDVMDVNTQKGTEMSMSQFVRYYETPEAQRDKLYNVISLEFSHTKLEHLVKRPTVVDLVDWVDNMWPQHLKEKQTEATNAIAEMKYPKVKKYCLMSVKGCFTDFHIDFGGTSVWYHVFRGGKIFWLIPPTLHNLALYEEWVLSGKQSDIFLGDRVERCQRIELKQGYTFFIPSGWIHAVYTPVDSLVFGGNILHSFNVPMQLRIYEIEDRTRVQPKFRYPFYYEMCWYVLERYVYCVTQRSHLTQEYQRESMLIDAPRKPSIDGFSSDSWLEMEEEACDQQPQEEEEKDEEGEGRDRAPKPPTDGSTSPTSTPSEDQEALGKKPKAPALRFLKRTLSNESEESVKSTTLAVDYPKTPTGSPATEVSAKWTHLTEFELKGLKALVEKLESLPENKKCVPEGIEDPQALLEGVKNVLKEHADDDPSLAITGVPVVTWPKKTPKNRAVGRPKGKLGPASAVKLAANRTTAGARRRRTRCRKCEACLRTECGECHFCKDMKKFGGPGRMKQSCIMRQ
In short: as §1

[1] = AlphaLISA assay, read-out: HDME Inhibition KDM4C (IC50)
[2] = AlphaLISA, in vitro, read-out: HDME Inhibition KDM4C
[3] = AlphaLISA assay, read-out: HDME Inhibition KDM6A (IC50)
[4] = AlphaLISA, in vitro, read-out: HDME Inhibition KDM6A
[5] = AlphaLISA assay, read-out: HDME Inhibition KDM5B (IC50)
[6] = AlphaLISA, in vitro, read-out: HDME Inhibition KDM5B

T2 sequence (Q9UPP1 37-440 limits assumed): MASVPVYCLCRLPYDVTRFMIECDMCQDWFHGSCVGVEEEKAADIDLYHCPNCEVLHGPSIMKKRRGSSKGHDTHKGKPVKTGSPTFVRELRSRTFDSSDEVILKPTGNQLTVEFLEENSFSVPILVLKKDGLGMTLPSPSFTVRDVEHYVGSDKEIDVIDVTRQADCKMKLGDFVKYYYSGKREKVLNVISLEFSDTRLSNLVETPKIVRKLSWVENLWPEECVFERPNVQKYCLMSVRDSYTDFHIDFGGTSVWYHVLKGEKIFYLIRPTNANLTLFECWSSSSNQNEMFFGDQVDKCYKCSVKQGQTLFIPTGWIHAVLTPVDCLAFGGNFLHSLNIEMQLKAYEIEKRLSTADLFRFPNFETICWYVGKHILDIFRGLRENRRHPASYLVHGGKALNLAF
T4 sequence (O15550 919-1401): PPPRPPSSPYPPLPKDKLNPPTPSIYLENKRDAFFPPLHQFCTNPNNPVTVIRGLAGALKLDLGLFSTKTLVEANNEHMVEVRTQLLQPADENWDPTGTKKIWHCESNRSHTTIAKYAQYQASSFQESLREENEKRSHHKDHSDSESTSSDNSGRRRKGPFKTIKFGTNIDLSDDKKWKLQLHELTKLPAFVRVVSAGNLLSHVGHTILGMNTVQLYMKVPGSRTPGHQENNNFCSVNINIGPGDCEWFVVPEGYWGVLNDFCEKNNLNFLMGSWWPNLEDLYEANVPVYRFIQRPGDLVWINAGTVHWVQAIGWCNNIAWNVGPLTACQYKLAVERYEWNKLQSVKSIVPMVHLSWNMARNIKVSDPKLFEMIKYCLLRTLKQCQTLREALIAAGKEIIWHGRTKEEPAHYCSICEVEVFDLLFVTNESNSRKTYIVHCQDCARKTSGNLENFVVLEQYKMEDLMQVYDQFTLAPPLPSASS

IC50 (KDM4C (JMJD2C); [1]) [µM]	IC50 (KDM4C (JMJD2C); [2]) [µM]	IC50 (PHF8 (KDM7)) [µM]	IC50 (KDM5B (PLU-1)) [µM]	IC50 (KDM6A (UTX); [3]) [µM]	IC50 (KDM6A (UTX); [4]) [µM]	IC50 (KDM2B (FBXL10)) [µM]	IC50 (KDM5B (PLU-1); [5]) [µM]	IC50 (KDM5B (PLU-1); [6]) [µM]	SMILES
> 10	> 10	0.353	3.35	> 10	> 10	0.708	–	–	CC#Cc1cc(C(=O)O)cc(CNCc2nccn2Cc2ccc(F)cc2)n1 [Compound 6, 2-{[({1-[(4-fluorophenyl)methyl]-1H-imidazol-2-yl}methyl)amino]methyl}-6-(prop-1-yn-1-yl)pyridine-4-carboxylic acid]
> 10	> 10	1.27	–	–	–	1.14	> 10	> 10	Cc1cc(C(=O)O)cc(CNCc2nnc(C)n2Cc2ccc(Cl)c(Cl)c2)n1 [Compound 57, 2-{[({4-[(3,4-dichlorophenyl)methyl]-5-methyl-4H-1,2,4-triazol-3-yl}methyl)amino]methyl}-6-methylpyridine-4-carboxylic acid]
> 10	> 10	1.3	1.78	–	–	0.656	–	–	O=C(O)c1cc(CO)nc(CNCc2nncn2CCc2cc(Cl)cc(Cl)c2)c1 [Compound 55, 2-{[({4-[2-(3,5-dichlorophenyl)ethyl]-4H-1,2,4-triazol-3-yl}methyl)amino]methyl}-6-(hydroxymethyl)pyridine-4-carboxylic acid]

The next lines start with the compound.

SMILES	IC50 (KDM4C (JMJD2C); [1]) [µM]	IC50 (KDM4C (JMJD2C); [2]) [µM]	IC50 (PHF8 (KDM7)) [µM]	IC50 (KDM5B (PLU-1)) [µM]	IC50 (KDM6A (UTX); [3]) [µM]	IC50 (KDM6A (UTX); [4]) [µM]	IC50 (KDM2B (FBXL10)) [µM]	IC50 (KDM5B (PLU-1); [5]) [µM]	IC50 (KDM5B (PLU-1); [6]) [µM]
C/C=C\c1cnc(CNCc2cc(C(=O)O)cc(C)n2)n1Cc1ccc(F)cc1 [Compound 35, 2-{[({1-[(4-fluorophenyl)methyl]-5-[(1Z)-prop-1-en-1-yl]-1H-imidazol-2-yl}methyl)amino]methyl}-6-methylpyridine-4-carboxylic acid]	> 10	> 10	0.437	–	> 10	> 10	0.117	> 10	> 10
Cc1cc(C(=O)O)cc(CNC2CCCc3cccnc32)n1 (stereo not drawn) [Compound 19, 2-methyl-6-{[(5,6,7,8-tetrahydroquinolin-8-yl)amino]methyl}pyridine-4-carboxylic acid]	> 10	> 10	0.89	–	> 10	> 10	1.15	–	0.348
Cc1cc(C(=O)O)cc(CNCc2ncc(C(C)C)n2Cc2ccc(F)cc2)n1 [Compound 8, 2-{[({1-[(4-fluorophenyl)methyl]-5-(propan-2-yl)-1H-imidazol-2-yl}methyl)amino]methyl}-6-methylpyridine-4-carboxylic acid]	> 10	> 10	0.384	–	> 10	> 10	0.15	> 10	> 10
CC(=O)c1ccc(Cn2ccnc2CNCc2cc(C(=O)O)cc(C)n2)cc1 [Compound 24, 2-{[({1-[(4-acetylphenyl)methyl]-1H-imidazol-2-yl}methyl)amino]methyl}-6-methylpyridine-4-carboxylic acid]	> 10	> 10	–	0.262	–	8.35	2.23	–	–
Cc1cc(C(=O)O)cc(CNCc2nccn2CC(C)C)n1 [Compound 80, 2-methyl-6-[({[1-(2-methylpropyl)-1H-imidazol-2-yl]methyl}amino)methyl]pyridine-4-carboxylic acid]	> 10	> 10	5.3	1.99	–	–	0.683	–	–
CCCc1nnc(CNCc2cc(C(=O)O)cc(CO)n2)n1Cc1ccc(F)cc1 [Compound 73, 2-{[({4-[(4-fluorophenyl)methyl]-5-propyl-4H-1,2,4-triazol-3-yl}methyl)amino]methyl}-6-(hydroxymethyl)pyridine-4-carboxylic acid]	> 10	> 10	1.65	–	–	–	0.252	> 10	> 10
